{"source": "patent US20170209544A1", "about": "“A PEPTIDE THERAPY TO COUNTERACT INSULIN RESISTANCE AND TYPE 2 DIABETES” (The Regents of the University of California, priority 2014, published 2017)", "key": {"peritoneal macrophages": {"system": "peritoneal macrophages", "assay": "qPCR of inflammatory genes in cultured peritoneal macrophages", "type": "cell-based, mice", "description": "Peritoneal macrophages were isolated after thioglycollate (3% solution in water) stimulation as described. Isolated macrophages were cultured in DMEM with 10% FBS for 48 hours with daily medium changes. Cells were then serum-starved overnight in DMEM with low FBS (0.5%) and then exposed to saline, PST (100 nM), or LPS (100 ng/ml) for 4 hours. At the end of incubation, the cultures were subjected to RNA extraction.\n(§1) RNA from tissues was extracted using a kit (RNeasy Plus, Qiagen, Valencia, Calif.). After DNase digestion, 200 ng of RNA was transcribed into cDNA in a 20-μl reaction using a High Capacity cDNA Archive kit and this cDNA was amplified. PCR (25-μl reactions) contained 5 μl of cDNA, 2×SYBR Green PCR Master Mix, and 400 nM of each primer. Differences in the threshold cycle number (ΔCt) between the target gene, the housekeeping gene Gapdh and the ribosomal protein gene 36B4 were used to calculate differences in expression. Primer sequences are provided below.\nAs shown in FIGS. 18A-18H, PST promotes macrophage inflammation and chemotaxis. Peritoneal macrophages were isolated from WT-NCD and KO-NCD after thioglycollate injection. After 4-hr exposure to saline, LPS (100 ng/ml) or PST (100 nM), RNAs were extracted and cDNAs were prepared for qPCR analyses of Chga (FIG. 18A, n=8), iNos (FIG. 18B, n=8), Tnfα (FIG. 18C, n=8), Mcp-1 (FIG. 18D, n=8), IL-6 (FIG. 18E, n=8), IL-12p40 (FIG. 18F, n=8) and iNos genes (FIG. 18G, n=8). (FIG. 18H) Effects of PST on chemotaxis of activated macrophages from NCD-fed C57BL/6J mice (n=5). “*” Denotes comparison between the indicated groups. “*”: P<0.05, “**”: p<0.01, “***”: p<0.001."}, "KO-DIO mice [1]": {"system": "KO-DIO mice", "assay": "GTT, ITT and fasting insulin in PST-treated KO-DIO mice", "type": "in vivo", "description": "For glucose tolerance tests (GTT), glucose (1 mg/g) was injected intraperitoneally (IP-GTT) (at time zero) or gavaged orally (O-GTT) after a 12-hours fast. Tail-vein glucose levels were measured at −30, 0, 15, 30, 60, 90, and 120 minutes. For insulin tolerance tests (ITT), insulin (0.4 mU/g) was injected intraperitoneally and blood glucose levels were measured at the indicated time points. Chronic PST (5 μg/g/day) and PSTv1 (10 μg/day) treatments were carried out for 15 days. For acute treatment, either peptides or saline were injected 30 minutes before glucose or insulin injection. Synergy Software Kaleidagraph Version 4.0 calculated the area under the curve (AUC) for each line curve.\nDespite increased obesity, KO-DIO mice maintained insulin sensitivity as shown by GTT and ITT. […] WT-DIO and KO-DIO male mice with mixed genetic background were fasted for 12 hrs and subjected to IP-GTT (2-way ANOVA: Strain, p<0.0001; Time, p<0.0001; Interaction, p<0.045; n=8, as shown in FIGS. 12A and 12B), oral GTT (2-way ANOVA: Strain, p<0.0001; Time, p<0.0001; Interaction, p=0.09; n=8, as shown in FIGS. 12C and 12D), or IP-ITT (2-way ANOVA: Treatment (WT), p<0.0001; Time, p<0.0001; Interaction, p=0.56; Treatment (KO), p<0.0001; Time, p<0.0001; Interaction, 0.43; n=9, as shown in FIGS. 12E and 12F), and AUC for glucose excursions were determined (see FIGS. 12B, 12D and 12F). […] and the corresponding AUC were shown in FIGS. 12E and 12F, respectively. Body weight-matched WT-DIO and KO-DIO mice were fasted for 12 hrs and subjected to clamp studies to determine glucose infusion rate (GIR, shown in FIG. 12G), glucose disposal rate (GDR, shown in FIG. 12H), (I) insulin-stimulated GDR (IS-GDR, shown in FIG. 12I) and % suppression of hepatic glucose production (HGP) (n=8-9, shown in FIG. 12J). Fasting (12 hrs) basal levels of plasma insulin before (FIG. 12K) and after (FIG. 12L) chronic PST treatment (5 μg/g BW/day, IP for 15 days) (n=6) were shown. “&” Indicates comparison between WT-DIO+Sal and KO-DIO+Sal, “$” indicates comparison between WT-DIO+Sal and WT-DIO+PST, “#” indicates comparison between KO-DIO+Sal and KO-DIO+PST, and “*” indicates comparison between the indicated groups. “*, $ or #”: P<0.05, “**, &&, ## or $$”: p<0.01, “***, ### or &&&”: p<0.001."}, "KO-DIO mice [2]": {"system": "KO-DIO mice", "assay": "Adipose tissue inflammatory genes and plasma cytokines in PST-treated KO-DIO mice", "type": "in vivo", "conditions": "PST 5 μg/g BW for 15 days", "description": "as §1\nPlasma cytokine concentrations were determined by a multiplex system from Quansys Biosciences (Logan, Utah).\nAs shown in FIGS. 17A-17H, PST modulates adipose tissue inflammation. A group of KO-DIO mice were injected with saline or PST (5 μg/g BW) for 15 days. Weight-matched saline-treated WT-DIO, KO-DIO and PST-treated KO-DIO mice were fasted for 12 hr and sacrificed. Blood was collected to measure plasma cytokine levels. Tissues were subjected to RNA extraction, cDNA preparation and RT-qPCR analysis for cytokines (FIG. 17A, n=6), pro-inflammatory genes (FIG. 17B: Cd11c & IL-12p40, n=6; FIG. 17C: iNos, n=6), and anti-inflammatory genes (FIG. 17D: Arg-1 & IL-10, n=6; FIG. 17E: Mgl-1, Mgl-2 and Ym1, n=6). “*” Denotes comparison between the indicated groups. “*”: P<0.05, “**”: p<0.01, “***”: p<0.001."}, "[3]": {"conditions": "PST 100 nM, 4 hr, Chga-KO macrophages"}, "[4]": {"conditions": "chronic PST 5 μg/g BW/day IP for 15 days, over WT-DIO levels"}}, "note": "Where no end group is shown, it is not given here."}
{"substance": "PEGKGEQEHSQQKEEEEEMAVVPQGLFRG-amide (PEGKGEQEHSQQKEEEEEMAVVPQGLFRG-NH2) [PST, Wild-type human pancreastatin, a chromogranin A derived peptide]", "values": [{"measurement": "expression of IL-6, IL-12p40 and iNos genes", "setting": "peritoneal macrophages; [3]", "value": "had no effect"}, {"measurement": "expression of Tnfα and Mcp-1", "setting": "peritoneal macrophages; [3]", "value": "increased"}, {"measurement": "expression of Tnfα, Mcp-1, IL-6, IL-12p40 and iNos", "setting": "peritoneal macrophages; macrophage cultures from WT and Chga-KO mice on NCD", "value": "increased"}, {"measurement": "blood glucose", "setting": "KO-DIO mice [1]; PST for 5 days, Chga-KO mice on high fat diet", "value": "led to hyperglycemia"}, {"measurement": "insulin sensitivity phenotype on HFD", "setting": "KO-DIO mice [1]; chronic PST 5 μg/g BW for 15 days", "value": "abolished"}, {"measurement": "fasting glucose", "setting": "KO-DIO mice [1]; [4]", "value": "raised"}, {"measurement": "fasting plasma insulin levels", "setting": "KO-DIO mice [1]; [4]", "value": "raised"}, {"measurement": "plasma levels of IL-12p70 and Mcp-1", "setting": "KO-DIO mice [2]", "value": "raised"}, {"measurement": "plasma levels of Ifnγ, IL-6, Mip-1α, Kc and Tnfα", "setting": "KO-DIO mice [2]", "value": "had no effect"}, {"measurement": "expression of Arg-1 and IL-10", "setting": "KO-DIO mice [2]; adipose tissue", "value": "significantly reduced"}, {"measurement": "expression of Mgl-1 or Mgl-2", "setting": "KO-DIO mice [2]; adipose tissue", "value": "had no effect"}, {"measurement": "expression of Ym-1", "setting": "KO-DIO mice [2]; adipose tissue", "value": "trend toward downregulating"}, {"measurement": "expression of pro-inflammatory genes IL-1β, Tnfα, IL-6, Mcp-1 and iNos", "setting": "KO-DIO mice [2]; adipose tissue", "value": "increased expression"}]}
